From US20240041875A1 (priority 2022, published 2024)

Experiments:
VSV-SARS-CoV-2 [1] = type: cell-based
A549-ACE2 cells = assay: Cytotoxicity to A549-ACE2 cells, CellTiter-Glo Assay; type: cell-based, human; conditions: 0.1625 nM to 2.5 nM, 24 h
Protocol: FIG. 6. Ponatinib cytotoxicity to A549-ACE2 cells at the concentration range of 0.1625 nM to 2.5 nM). A549-ACE2 cells were treated with ponatinib for 24 h and the cell viability was detected by CellTiter-Glo Assay.

VSV-SARS-CoV-2 [2] = type: cell-based; remark: listed apart in the source
SARS-CoV-2 = type: cell-based
SARS-CoV-2 WT strain = tested on: SARS-CoV-2 WT strain; set-up: species or system K18-hACE2 mice; conditions: mouse, in vivo

Compound	inhibition of viral infection / plaque formation, side-by-side comparison (VSV-SARS-CoV-2 [1])	A549-ACE2 cell viability (A549-ACE2 cells)	screening outcome, inhibition of infection by VSV-SARS-CoV-2 (VSV-SARS-CoV-2 [2])	inhibition of VSV-SARS-CoV-2 infectivity (VSV-SARS-CoV-2 [1])	inhibition of VSV-SARS-CoV-2 under four treatment conditions (concomitant, virus pre-incubated, cells pretreated, treatment after infection) (VSV-SARS-CoV-2 [1])	reduction of viral infection by live SARS-CoV-2 (plaque assay) (SARS-CoV-2)	body weight of infected mice (SARS-CoV-2 WT strain)	expression of SARS-CoV-2 nucleocapsid protein (NP) in lung tissues (IHC) (SARS-CoV-2 WT strain)	survival of infected mice (SARS-CoV-2 WT strain)	survival of infected mice at different doses (SARS-CoV-2 WT strain)	viral RNA copies in the lung (quantitative real-time PCR) (SARS-CoV-2 WT strain)	viral titer in the lung (plaque assay) (SARS-CoV-2 WT strain)
Cc1ccc(C(=O)Nc2ccc(CN3CCN(C)CC3)c(C(F)(F)F)c2)cc1C#Cc1cnc2[nH]ncc2c1 [olverembatinib]	not olverembatinib treatment inhibited plaque formation	–	–	–	–	–	–	–	–	–	–	–
Cc1ccc(C(=O)Nc2ccc(CN3CCN(C)CC3)c(C(F)(F)F)c2)cc1C#Cc1cnc2cccnn12 [ponatinib]	inhibited plaque formation	no effect on A549-ACE2 cell viability	several candidates including ponatinib	significantly inhibited VSV-SARS-CoV-2 in a dose-dependent manner	could inhibit VSV-SARS-CoV-2 under all these conditions	significantly reduced viral infection	two of the five mice treated with ponatinib started to regain body weight on day 7	markedly lower	lived significantly longer than the control group	Dose-dependent effect	much lower than in the PBS group	significantly decreased the viral load in the lung
